Assay results published in patent US20030003488A1, “Regulation of human mitochondrial deformylase” (priority 1999, published 2003).

System: human mitochondrial deformylase
Experiment: Expression of mitochondrial deformylase by Western blotting in antisense-treated HCT 116 cells
Type: cell-based
Details: 10 micromolar once per day for seven days

Substance	expression of the mitochondrial deformylase as determined by Western blotting
5′-AAAATGCAGGTAAGCATGTGAAAA-3′ [oligonucleotide (2)]	significantly reduced expression
5′-CAGCGATTTAAATACGGAACAAGG-3′ [oligonucleotide (1)]	significantly reduced expression
5′-TCAACTGACTAGATGTACATGGAC-3′ (DNA TCAACTGACTAGATGTACATGGAC; chemistry not given here) [oligonucleotide (3), reference compound]	not observed
